Laboratory results reported in the NIST ThermoML archive (doi:10.1016/j.jct.2010.08.004).

Assay: mn = molality of the nth substance listed, in mol/kg
Conditions: 101 kPa, Liquid, Vibrating tube method

CC(C)[C@H](N)C(=O)O [L-valine] + O
mass density [kg/m3]
Conditions | m1 = 0.04524 | m1 = 0.09973 | m1 = 0.152 | m1 = 0.1964 | m1 = 0.2542 | m1 = 0.2955
293.15 K | 999.424 | 1000.87 | 1002.24 | 1003.4 | 1004.9 | 1006.01
298.15 K | 998.244 | 999.672 | 1001.03 | 1002.18 | 1003.67 | 1004.72
303.15 K | 996.827 | 998.242 | 999.59 | 1000.73 | 1002.2 | 1003.25
308.15 K | 995.195 | 996.6 | 997.939 | 999.067 | 1000.53 | 1001.56

NCC(=O)O [2-aminoacetic acid] + O
mass density [kg/m3]
Conditions | m1 = 0.05482 | m1 = 0.1106 | m1 = 0.1792 | m1 = 0.2044 | m1 = 0.2754 | m1 = 0.2966
293.15 K | 999.976 | 1001.75 | 1003.91 | 1004.69 | 1006.9 | 1007.58
298.15 K | 998.789 | 1000.54 | 1002.68 | 1003.46 | 1005.64 | 1006.28
303.15 K | 997.364 | 999.102 | 1001.22 | 1002 | 1004.17 | 1004.81
308.15 K | – | 997.455 | 999.562 | 1000.33 | 1002.5 | 1003.13

CC(C)C[C@H](N)C(=O)O [L-leucine] + O
mass density [kg/m3]
Conditions | m1 = 0.03401 | m1 = 0.03488 | m1 = 0.05007 | m1 = 0.08154 | m1 = 0.119 | m1 = 0.1427
293.15 K | 999.039 | 999.061 | 999.427 | 1000.18 | 1001.08 | 1001.64
298.15 K | 997.855 | 997.877 | 998.236 | 998.978 | 999.854 | 1000.41
303.15 K | 996.441 | 996.462 | 996.817 | 997.55 | 998.417 | 998.966
308.15 K | 994.81 | 994.83 | 995.182 | 995.908 | 996.767 | 997.31
